Measurements reported in paper PMC11354745, “Discovery of Novel Amino Acids (Analogues)-Substituted Thiophene[3,2-d]pyrimidine Derivatives as Potent HIV-1 Non-Nucleoside Reverse Transcriptase Inhibitors: Design, Synthesis, and Biological Evaluation” (International Journal of Molecular Sciences, 2024).
Like-named read-outs stand apart in the source and are kept apart here.

How the values were obtained:
[1] = system: HIV-1 wild-type (WT) strain (IIIB); assay: Anti-HIV activity in MT-4 cells (MTT method), HIV-1 IIIB; format: cell-based; conditions: for EC50: Human immunodeficiency virus 1, IIIB, MT4, read-out: EC50 IIIB; for SI IIIB: selectivity index, ratio CC50/EC50, IIIB
Experimental: (§1) All the target compounds were first evaluated for their antiviral activity against HIV-1 wild-type (WT) strain (IIIB) and the double-mutant strain K103N+Y181C (RES056) in the MT-4 cell line, using the MTT method.
(§2) The antiviral potential and cytotoxic effects of the target compounds were assessed using the MTT assay in MT-4 cells, following established protocols. The HIV-1 (IIIB) strain, single mutant strains (L100I, K103N, Y181C, Y188L and E138K), double mutant strains (F227L + V106A and K103N + Y181C) and MT-4 cells were provided by the Rega Institute of Medicine at the University of Leuven, Belgium. These viral strains were propagated in MT-4 cells. […] The specific experimental procedures are detailed below.
(§3) Initially, concentrated solutions of the test compounds were prepared at 10-fold the final desired concentration and added to triplicate wells in 25 µL aliquots to assess their impacts on both mock and HIV-infected MT-4 cells. Using a Biomek 3000 robot, these were diluted in a 96-well flat-bottomed microplate by mixing with medium, creating a series of 5-fold steps down in concentration. Each test included control groups of untreated infected and mock-infected cells to establish baselines for comparison. […] These strains served to mimic both typical and resistant infections. Additionally, mock-infected wells received an equal volume of culture medium to assess the compounds’ impacts on uninfected cells, thereby determining cytotoxicity. MT-4 cells in the exponential growth phase were pelleted by centrifugation at 1000 rpm for 5 min, after which the supernatant was removed. The cells were resuspended to a density of 6 × 10^5 cells/mL, and 50 µL of this suspension was added to each well. Post-infection, on the fifth day, cell viability in both mock and infected conditions was measured via the MTT assay using a spectrophotometer.

[2] = system: HIV-1 E138K mutant strain; assay: Anti-HIV activity in MT-4 cells (MTT method), E138K; format: cell-based; conditions: for EC50: Human immunodeficiency virus 1, MT4, read-out: EC50 E138K
Description: (§4) All the target compounds were first evaluated for their antiviral activity against HIV-1 wild-type (WT) strain (IIIB) and the double-mutant strain K103N+Y181C (RES056) in the MT-4 cell line, using the MTT method. The potent inhibitors were selected to assess their efficacy against other strains resistant to NNRTIs, including L100I, K103N, Y181C, Y188L, E138K and the double-mutant strain F227L+V106A. The approved drugs NVP, EFV and ETR were selected as reference drugs. The biological evaluation results of the test compounds, presented as EC50 (anti-HIV potency), CC50 (cytotoxicity) and SI (selectivity index, CC50/EC50 ratio), are summarized in Table 1 and Table 2.
(§5) The antiviral potential and cytotoxic effects of the target compounds were assessed using the MTT assay in MT-4 cells, following established protocols. The HIV-1 (IIIB) strain, single mutant strains (L100I, K103N, Y181C, Y188L and E138K), double mutant strains (F227L + V106A and K103N + Y181C) and MT-4 cells were provided by the Rega Institute of Medicine at the University of Leuven, Belgium. These viral strains were propagated in MT-4 cells. The MT-4 cells were cultured in RPMI-1640 medium supplemented with 20 mM HEPES buffer (Life Technologies, Grand Island, NY, USA), 10% (v/v) heat-inactivated fetal calf serum (FCS), 2 mM L-glutamine, 0.1% sodium bicarbonate, and 20 μg/mL gentamicin. Cultures were maintained at 37 °C in a 5% CO2 atmosphere. The specific experimental procedures are detailed below.
(§6) Initially, concentrated solutions of the test compounds were prepared at 10-fold the final desired concentration and added to triplicate wells in 25 µL aliquots to assess their impacts on both mock and HIV-infected MT-4 cells. Using a Biomek 3000 robot, these were diluted in a 96-well flat-bottomed microplate by mixing with medium, creating a series of 5-fold steps down in concentration. Each test included control groups of untreated infected and mock-infected cells to establish baselines for comparison. We introduced HIV-1 strains, both wild-type (IIIB) and drug-resistant variants harboring mutations L100I, K103N, Y181C, Y188L, E138K and F227L + V106A and the double mutant K103N + Y181C (RES056), at concentrations of 100–300 CCID50, into their respective wells. These strains served to mimic both typical and resistant infections. Additionally, mock-infected wells received an equal volume of culture medium to assess the compounds’ impacts on uninfected cells, thereby determining cytotoxicity. MT-4 cells in the exponential growth phase were pelleted by centrifugation at 1000 rpm for 5 min, after which the supernatant was removed. The cells were resuspended to a density of 6 × 10^5 cells/mL, and 50 µL of this suspension was added to each well. Post-infection, on the fifth day, cell viability in both mock and infected conditions was measured via the MTT assay using a spectrophotometer. The CC50 was identified as the concentration of the compound that caused a 50% reduction in the viability of the mock-infected cells, indicating cytotoxicity. Conversely, the EC50 represented the concentration that provided 50% protection against viral cytopathic effects in infected cells, signifying antiviral potency.

[3] = Cytotoxicity in mock-infected MT-4 cells (MTT method); format: cell-based; conditions: human, CC50
Experimental: as §5, §6

[4] = system: HIV-1 Y181C mutant strain; assay: Anti-HIV activity in MT-4 cells (MTT method), Y181C; format: cell-based; conditions: Human immunodeficiency virus 1, MT4, read-out: EC50 Y181C
Description: as §4, §5, §6

[5] = system: HIV-1 K103N mutant strain; assay: Anti-HIV activity in MT-4 cells (MTT method), K103N; format: cell-based; conditions: Human immunodeficiency virus 1, MT4, read-out: EC50 K103N
Description: as §4, §5, §6

[6] = system: HIV-1 double-mutant strain F227L+V106A; assay: Anti-HIV activity in MT-4 cells (MTT method), F227L+V106A; format: cell-based; conditions: Human immunodeficiency virus 1, MT4, read-out: EC50 F227L/V106A
Description: as §4, §5, §6

WT HIV-1 RT = molecular target: T1, WT HIV-1 RT (Human immunodeficiency virus type 1 group M subtype B, UniProt P03366); assay: HIV-1 RT inhibition assay (Roche kit, ELISA); format: biochemical
T1 construct: viral nucleotides (dNTPs) and the HIV-1 RT enzyme in an incubation buffer; purchased Roche
Description: An assay kit for HIV-1 reverse transcriptase (RT) from Roche was utilized to assess RT inhibition. The kit provided all necessary components for the RT reaction, and the enzyme-linked immunosorbent assay (ELISA) methodology for the inhibition assay was executed according to the kit’s instructions. […] Unbound dNTPs were washed away, and an anti-[…] (DIG)-POD working solution was introduced. […] Excess anti-DIG-POD was removed, and a peroxidase substrate (ABTS) solution was applied to the MTPs. […] The percentage of the inhibitory activity of the RT inhibitors was calculated by formula, as given below:
% Inhibition = [O.D. value with RT but without inhibitors − O.D. value with RT and inhibitors]/[O.D. value with RT […] − O.D. value without RT and inhibitors].

[7] = system: HIV-1 Y188L mutant strain; assay: Anti-HIV activity in MT-4 cells (MTT method), Y188L; format: cell-based; conditions: Human immunodeficiency virus 1, MT4, read-out: EC50 Y188L
Description: as §4, §5, §6

[8] = system: HIV-1 L100I mutant strain; assay: Anti-HIV activity in MT-4 cells (MTT method), L100I; format: cell-based; conditions: Human immunodeficiency virus 1, MT4, read-out: EC50 L100I
Description: as §4, §5, §6

[9] = system: HIV-1 double-mutant strain K103N+Y181C (RES056); assay: microbe, parasite or virus in culture; format: cell-based; conditions: for EC50: Human immunodeficiency virus 1, MT4, read-out: EC50 RES056; for SI RES056: selectivity index, ratio CC50/EC50, RES056
Experimental: as §1, §2, §3

MT-4 cells = assay: Cytotoxicity in mock-infected MT-4 cells (MTT method); format: cell-based; conditions: human, 5 days
Experimental: as §5, §6

[10] = system: HIV-1 wild-type (WT) and a panel of NNRTI-resistant strains; assay: Anti-HIV activity in MT-4 cells (MTT method), WT and panel of NNRTI-resistant strains; format: cell-based
Description: as §4
The antiviral potential and cytotoxic effects of the target compounds were assessed using the MTT assay in MT-4 cells, following established protocols. […]
Initially, concentrated solutions of the test compounds were prepared at 10-fold the final desired concentration and added to triplicate wells in 25 µL aliquots to assess their impacts on both mock and HIV-infected MT-4 cells. […] Post-infection, on the fifth day, cell viability in both mock and infected conditions was measured via the MTT assay using a spectrophotometer. […]

Cc1cc(C#N)cc(C)c1Oc1nc(Nc2ccc(NC(=O)[C@H](N)CC(C)C)cc2)nc2ccsc12 [5n]
EC50 [1]: 62 ± 19 nM
SI IIIB [1]: 391
EC50 [2]: 231 ± 154 nM
CC50 at 5 days [3]: 24300 ± 4280 nM
EC50 [4]: 2160 ± 57 nM
EC50 [5]: 131 ± 4 nM
EC50 [6]: 2030 ± 1180 nM
IC50 (WT HIV-1 RT): 2390 ± 86 nM
EC50 [7]: 2110 ± 288 nM
EC50 [8]: 2120 ± 455 nM
EC50 [9]: 5500 ± 1360 nM
SI RES056 [9]: 4

Cc1cc(C#N)cc(C)c1Oc1nc(Nc2ccc(NC(=O)[C@@H](N)C(C)C)cc2)nc2ccsc12 [5i]
EC50 [1]: 42 ± 8 nM
SI IIIB [1]: 157
EC50 [2]: 247 ± 107 nM
melting point: 184 to 187 °C
CC50 at 5 days [3]: 6540 ± 1340 nM
EC50 [4]: > 6540 nM
EC50 [5]: 45 ± 10 nM
EC50 [6]: 3030 ± 1760 nM
IC50 (WT HIV-1 RT): 1350 ± 148 nM
EC50 [7]: 6910 ± 944 nM
EC50 [8]: 1200 ± 218 nM
EC50 [9]: ≥ 6620 nM
SI RES056 [9]: ≤1

Cc1cc(C#N)cc(C)c1Oc1nc(Nc2ccc(NC(=O)[C@@H](N)Cc3c[nH]cn3)cc2)nc2ccsc12 [5e]
EC50 [1]: 52 ± 22 nM
SI IIIB [1]: 484
EC50 [2]: 260 ± 75 nM
melting point: 158 to 160 °C
CC50 at 5 days [3]: 25100 ± 2300 nM
EC50 [4]: 2580 ± 477 nM
EC50 [5]: 35 ± 9 nM
EC50 [6]: 1460 ± 979 nM
IC50 (WT HIV-1 RT): 927 ± 64 nM
EC50 [7]: 2260 ± 733 nM
EC50 [8]: 902 ± 311 nM
EC50 [9]: ≥ 4880 nM
SI RES056 [9]: ≤5

Cc1cc(C#N)cc(C)c1Oc1nc(Nc2ccc(NC(=O)C3CCCN3)cc2)nc2ccsc12 (centres unmarked) [5k]
EC50 [1]: 54 ± 18 nM
SI IIIB [1]: 513
EC50 [2]: 94 ± 22 nM
fold superior to NVP, E138K ([2]; ratio of EC50 values against E138K, versus NVP): ~1.9 fold
melting point: 227 to 230 °C
CC50 at 5 days [3]: 27900 nM
CC50 (MT-4 cells): 27900 ± 910 nM
EC50 [4]: 1850 ± 621 nM
EC50 ([10]; Human immunodeficiency virus 1, MT4, read-out: EC50 values against HIV-1 WT and a panel of NNRTI-resistant strains, range over strains, MT-4 cells): 42 to 7530 nM
EC50 ([10]; read-out: EC50 values against HIV-1 WT and a panel of NNRTI-resistant strains, range over strains, MT-4 cells): 31 to 2360 nM
EC50 [5]: 31 ± 4 nM
EC50 [6]: 1760 ± 686 nM
IC50 (WT HIV-1 RT): 1120 ± 74 nM
EC50 [7]: 2360 ± 57 nM
EC50 [8]: 601 ± 261 nM
EC50 [9]: 7530 ± 280 nM
SI RES056 [9]: 4

Cc1cc(C#N)cc(C)c1Oc1nc(Nc2ccc(NC(=O)C3CC(O)CN3)cc2)nc2ccsc12 (centres unmarked) [5l]
EC50 [1]: 59 ± 10 nM
SI IIIB [1]: 451
EC50 [2]: 314 ± 95 nM
CC50 at 5 days [3]: 26800 ± 1070 nM
EC50 [4]: 2600 ± 225 nM
EC50 [5]: 72 ± 18 nM
EC50 [6]: 2190 ± 45 nM
IC50 (WT HIV-1 RT): 1710 ± 298 nM
EC50 [7]: 2740 ± 103 nM
EC50 [8]: 1480 ± 545 nM
EC50 [9]: > 26800 nM
SI RES056 [9]: <1

Cc1cc(C#N)cc(C)c1Oc1nc(Nc2ccc(NC(=O)[C@@H](N)Cc3ccccc3)cc2)nc2ccsc12 [5h]
EC50 [1]: 55 ± 12 nM
SI IIIB [1]: 429
EC50 [2]: 679 ± 569 nM
melting point: 203 to 206 °C
CC50 at 5 days [3]: 23700 ± 521 nM
EC50 [4]: 2720 ± 422 nM
EC50 [5]: 73 ± 16 nM
EC50 [6]: 2110 ± 293 nM
IC50 (WT HIV-1 RT): 1540 ± 119 nM
EC50 [7]: 2390 ± 352 nM
EC50 [8]: 1830 ± 208 nM
EC50 [9]: 8470 ± 483 nM
SI RES056 [9]: 3
